Test results from patent publication US20260258084A1, “New Peptides as Selective IL-23 Receptor Antagonists” (Sanofi, priority 2022, published 2026).
Starred links: 1 amine or outer side, 2 acyl side, 3 side chain; linkers in the order of their positions; H or OH if unused. Positions of bridges follow the written chain, without caps; N, C: chain ends. Non-standard residues stand in square brackets, D forms with d. Residues, ends and D or L forms follow the SMILES beside them. *: point of attachment. Trp(7-Me) = Cc1cccc2c(C[C@H](N)C(=O)O)c[nH]c12; X1 = O=C(CCCCN[*:3])N[C@@H](CS[*:2])C(=O)[*:1]; Trp(1-Me) = Cn1cc(C[C@H](N)C(=O)O)c2ccccc21; αMeLys(Me2) = CN(C)CCCC[C@](C)(N)C(=O)O; 2Nal = N[C@@H](Cc1ccc2ccccc2c1)C(=O)O; d2Nal = N[C@H](Cc1ccc2ccccc2c1)C(=O)O; NMe5Ava = CN(CCCCC(=O)[*:2])[*:1]; 3Pal = N[C@@H](Cc1cccnc1)C(=O)O; αMeL = CC(C)C[C@](C)(N)C(=O)O; Suc = O=C(CCC(=O)[*:2])[*:1]; Thp = NC1(C(=O)O)CCOCC1; Me2NCH2CH2 = CN(C)CC*; Aib = CC(C)(N)C(=O)O; Ava = NCCCCC(=O)O; Sar = CNCC(=O)O

Tests used:
[1] = target: T1, human interleukin-23 receptor (recombinant human IL-23R-Fc chimera) (Homo sapiens, UniProt Q5VWK5); experiment: Human ELISA IL23/IL23R (assay for specific human IL23R antagonists); assay type: binding; details: Table 10; read-out: Human ELISA IL23/IL23R IC50
T1 construct: Fc (IgG Fc fusion)
Procedure, shortened: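 Plates coated overnight at 4 °C with human IL23 ([…]), blocked, then serially diluted peptides added with recombinant human IL-23R-Fc (0.1 μg/ml final) for 60 min at room temperature. Bound receptor detected with anti-human IgG1-HRP and fluorogenic peroxidase substrate.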

[2] = test system: IL-23 induced STAT3 signaling in HEK-Blue™ IL-23 cells; experiment: IL-23 induced STAT3 signaling in HEK-Blue IL-23 cells (SEAP reporter); assay type: cell-based; details: human IL23 0.25 ng/ml, read-out: pSTAT3
Procedure, shortened: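 HEK-Blue IL-23 cells (10,000/well) pre-incubated 60 min at 37 °C with serially diluted peptides, then stimulated overnight with human IL-23 (0.25 ng/ml final). STAT3-driven SEAP in supernatant detected with QUANTI-Blue after 45 min at RT (OD 620-655 nm); dose-response curves fitted.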

[3] = test system: T2, Pepsin; experiment: Protease stability in simulated gastric fluid (Pepsin-SGF, FaSSGF); assay type: in vitro ADME; details: simulated gastric fluid with pepsin (Pepsin-SGF), 60 min, 1 μM peptide, 37° C., read-out: FaSSGF 60 (min), remaining percent of peptide
T2 construct: purchased Merck Millipore
Description: (§1) Studies were carried out in simulated intestinal fluid (SIF) and simulated gastric fluid (SGF) to evaluate gastric stability of the peptide compounds disclosed herein.
For clarification the term “Pepsin-SGF” refers to a solution of simulated gastric fluid containing pepsin whereas “SGF media” refers to a solution of simulated gastric fluid without pepsin. Pepsin-SGF was prepared by dissolving 320 mg Pepsin (Merck Millipore) in 100 mL SGF media concentrate (ProSense).
(§2) Peptides were first dissolved at 1 mM stock concentration in 0.01 HCl (+/−10% of DMSO) and were than diluted further with water to a stock concentration of 20 μM. Final peptide concentration in the incubation was 1 μM.
(§3) To 76 μL of the Pepsin-SGF buffer, 4 μL of the 20 μM peptide stock solution was added and incubated at 37° C. At each timepoint (0, 60, 120 and 240 minutes) the reaction was quenched with addition of 80 μL Ethanol (0.1% HCOOH). The samples were centrifuged for 20 minutes and an aliquot of the supernatant 100 μL were transferred to a LoBind-MTP plate and analyzed by LCMS/MS. The peak area response was calculated at each time point for each test compound. As internal reference, the peak area response of the same test compound at TO was calculated. The percent remaining at each timepoint was calculated based on the peak area response ratio of the test compound at TO. Time 0 was set to 100%, and all later timepoints were calculated relative to time 0.

[4] = test system: Pancreatin; experiment: Protease stability in simulated intestinal fluid (Pancreatin-SIF, FaSSIF); assay type: in vitro ADME; details: 1 μM peptide, 37° C.; for remaining at 1 h, 1 µM: 60 min, read-out: FaSSIF 60 (min), remaining percent of peptide; for remaining at 2 h, 1 µM: 120 min, read-out: FaSSIF 120 (min), remaining percent of peptide; for remaining at 4 h, 1 µM: 240 min, read-out: FaSSIF 240 (min), remaining percent of peptide
Description: as §1
Similarly, the term “Pancreatin-SIF” refers to a solution of simulated intestinal fluid containing pancreatin whereas “SIF-media” refers to a solution of simulated intestinal fluid without pancreatin.
Pancreatin-SIF was prepared by dissolving 1 mg Pancreatin (MP Biomedicals) in 10 mL SIF media concentrate (ProSense).
as §2
as §3, with “µM” for “μM”

SMILES	IC50 [1]	remaining at 1 h, 1 µM [3]	remaining at 1 h, 1 µM [4]	remaining at 2 h, 1 µM [4]	remaining at 4 h, 1 µM [4]	IC50 [2]
CC(=O)NCCCC[C@@H]1NC(=O)[C@H](Cc2c[nH]c3c(C)cccc23)NC(=O)[C@@H](NC(C)=O)CCCCNC(=O)[C@@H]2CSSC[C@H](NC1=O)C(=O)N[C@@H](Cc1ccc(OCCN(C)C)cc1)C(=O)N[C@H](Cc1ccc3ccccc3c1)C(=O)N[C@@](C)(CCCCN(C)C)C(=O)N[C@H](C(=O)N[C@@H](CC(N)=O)C(=O)N[C@@H](Cc1cccnc1)C(=O)N(C)CC(N)=O)CCC(=O)NCCCCC(=O)N2 [compound 149] (Ac-K[Trp(7-Me)]K(Ac)CY(Me2NCH2CH2)[d2Nal][αMeLys(Me2)]EN[3Pal][Sar]-NH2; linker 1-4-8 via X1)	0.64 nM	101%	95%	99%	97%	0.04 nM
CC(=O)NCCCC[C@@H]1NC(=O)[C@H](Cc2cn(C)c3ccccc23)NC(=O)[C@@H](NC(C)=O)CCCCNC(=O)[C@@H]2CSSC[C@H](NC1=O)C(=O)N[C@@H](Cc1ccc(OCCN(C)C)cc1)C(=O)N[C@@H](Cc1ccc3ccccc3c1)C(=O)NC1(CCOCC1)C(=O)N[C@H](C(=O)N[C@@H](CC(N)=O)C(=O)N[C@@H](Cc1cccnc1)C(=O)N(C)CC(N)=O)CCC(=O)NCCCCC(=O)N2 [compound 126] (Ac-K[Trp(1-Me)]K(Ac)CY(Me2NCH2CH2)[2Nal][Thp]EN[3Pal][Sar]-NH2; linker 1-4-8 via X1)	0.56 nM	80%	90%	87%	83%	0.11 nM
CC(=O)NCCCC[C@@H]1NC(=O)[C@H](Cc2c[nH]c3c(C)cccc23)NC(=O)[C@H]([C@@H](C)O)NC(=O)[C@H](CC(N)=O)NC(=O)[C@@H]2CSSC[C@H](NC1=O)C(=O)N[C@@H](Cc1ccc(OCCN(C)C)cc1)C(=O)N[C@@H](Cc1ccc3ccccc3c1)C(=O)N[C@@](C)(CCCCN(C)C)C(=O)N[C@H](C(=O)N[C@@H](CC(N)=O)C(=O)N[C@H](CC(C)C)C(N)=O)CCC(=O)NCCCCC(=O)N2 [compound 54] ([Ava]CNT[Trp(7-Me)]K(Ac)CY(Me2NCH2CH2)[2Nal][αMeLys(Me2)]EN[dL]-NH2; disulfide 2-7; lactam N-11)	0.51 nM	91%	100%	100%	90%	2.59 nM
CC(=O)NCCCC[C@@H]1NC(=O)[C@H](Cc2c[nH]c3c(C)cccc23)NC(=O)[C@H]([C@@H](C)O)NC(=O)[C@H](CC(N)=O)NC(=O)[C@@H]2CSSC[C@H](NC1=O)C(=O)N[C@@H](Cc1ccc(OCCN(C)C)cc1)C(=O)N[C@@H](Cc1ccc3ccccc3c1)C(=O)NC(C)(C)C(=O)N[C@H](C(=O)N[C@@H](CC(N)=O)C(=O)N[C@@H](Cc1c[nH]cn1)C(N)=O)CCC(=O)NCCCCC(=O)N2 [compound 20] ([Ava]CNT[Trp(7-Me)]K(Ac)CY(Me2NCH2CH2)[2Nal][Aib]ENH-NH2; disulfide 2-7; lactam N-11)	0.5 nM	95%	85%	81%	72%	3.12 nM

More lines, in order of falling IC50 [1], values ahead:

IC50 [1]	remaining at 1 h, 1 µM [3]	remaining at 1 h, 1 µM [4]	remaining at 2 h, 1 µM [4]	remaining at 4 h, 1 µM [4]	SMILES	IC50 [2]
0.49 nM	60%	82%	79%	79%	CC(=O)NCCCC[C@@H]1NC(=O)[C@H](Cc2c[nH]c3c(C)cccc23)NC(=O)[C@H]([C@@H](C)O)NC(=O)[C@H](CC(N)=O)NC(=O)[C@@H]2CSSC[C@H](NC1=O)C(=O)N[C@@H](Cc1ccc(OCCN(C)C)cc1)C(=O)N[C@@H](Cc1ccc3ccccc3c1)C(=O)N[C@@](C)(CC(C)C)C(=O)N[C@H](C(=O)N[C@@H](CC(N)=O)C(=O)N[C@@H](Cc1c[nH]cn1)C(N)=O)CCC(=O)NCCCCC(=O)N2 [compound 22] ([Ava]CNT[Trp(7-Me)]K(Ac)CY(Me2NCH2CH2)[2Nal][αMeL]ENH-NH2; disulfide 2-7; lactam N-11)	1.37 nM
0.42 nM	100%	80%	78%	74%	CC(=O)NCCCC[C@@H]1NC(=O)[C@H](Cc2c[nH]c3c(C)cccc23)NC(=O)[C@H]([C@@H](C)O)NC(=O)[C@H](CC(N)=O)NC(=O)[C@@H]2CSSC[C@H](NC1=O)C(=O)N[C@@H](Cc1ccc(OCCN(C)C)cc1)C(=O)N[C@@H](Cc1ccc3ccccc3c1)C(=O)NC(C)(C)C(=O)N[C@H](C(=O)N[C@@H](CC(N)=O)C(=O)N[C@@H](Cc1cccnc1)C(=O)N(C)CC(N)=O)CCCCNC(=O)CCC(=O)N2 [compound 157] (CNT[Trp(7-Me)]K(Ac)CY(Me2NCH2CH2)[2Nal][Aib]KN[3Pal][Sar]-NH2; disulfide 1-6; linker N-10 via Suc)	0.06 nM
0.38 nM	99%	100%	100%	98%	Cc1cccc2c(C[C@@H]3NC(=O)[C@H]([C@@H](C)O)NC(=O)[C@H](CC(N)=O)NC(=O)[C@@H]4CSSC[C@H](NC(=O)[C@H](CCC(N)=O)NC3=O)C(=O)N[C@@H](Cc3ccc(OCCN(C)C)cc3)C(=O)N[C@@H](Cc3ccc5ccccc5c3)C(=O)N[C@@](C)(CCCCN(C)C)C(=O)N[C@H](C(=O)N[C@@H](CC(N)=O)C(=O)N[C@@H](Cc3cccnc3)C(=O)N(C)CC(N)=O)CCCCNC(=O)CCC(=O)N4)c[nH]c12 [compound 152] (CNT[Trp(7-Me)]QCY(Me2NCH2CH2)[2Nal][αMeLys(Me2)]KN[3Pal][Sar]-NH2; disulfide 1-6; linker N-10 via Suc)	0.04 nM
0.35 nM	90%	83%	71%	57%	CC(C)C[C@]1(C)NC(=O)[C@H](Cc2ccc3ccccc3c2)NC(=O)[C@H](Cc2ccc(OCCN(C)C)cc2)NC(=O)[C@@H]2CSSC[C@H](NC(=O)CCCCN(C)C(=O)CC[C@@H](C(=O)N[C@@H](CC(N)=O)C(=O)N[C@@H](CC(N)=O)C(N)=O)NC1=O)C(=O)N[C@@H](CC(N)=O)C(=O)N[C@@H]([C@@H](C)O)C(=O)N[C@@H](Cc1c[nH]c3ccccc13)C(=O)N[C@@H](CCC(N)=O)C(=O)N2 [compound 41] ([NMe5Ava]CNTWQCY(Me2NCH2CH2)[2Nal][αMeL]ENN-NH2; disulfide 2-7; lactam N-11)	1.6 nM
0.3 nM	97%	82%	77%	74%	CC(=O)NCCCC[C@@H]1NC(=O)[C@H](Cc2c[nH]c3c(C)cccc23)NC(=O)[C@H]([C@@H](C)O)NC(=O)[C@H](CC(N)=O)NC(=O)[C@@H]2CSSC[C@H](NC1=O)C(=O)N[C@@H](Cc1ccc(OCCN(C)C)cc1)C(=O)N[C@@H](Cc1ccc3ccccc3c1)C(=O)NC1(CCOCC1)C(=O)N[C@H](C(=O)N[C@@H](CC(N)=O)C(=O)N[C@@H](Cc1cccnc1)C(=O)N(C)CC(N)=O)CCCCNC(=O)CCC(=O)N2 [compound 102] (CNT[Trp(7-Me)]K(Ac)CY(Me2NCH2CH2)[2Nal][Thp]KN[3Pal][Sar]-NH2; disulfide 1-6; linker N-10 via Suc)	0.09 nM
